Results published in ChEMBL document CHEMBL6177950, “Discovery of potent and selective CDK2 inhibitors with high safety and favorable bioavailability for the treatment of cancer” (Eur J Med Chem, 2025).
Calls of active or inactive are those of the source. No cut-off for these calls is given here.

What was measured:
[1] = molecular target: Cyclin-dependent kinase 4/cyclin D1 (Homo sapiens, UniProt P11802); test: Inhibition of CDK4/Cyclin D1 (unknown origin) pre-incubated for 10 mins followed by ATP/substrate addition and measured after 60 mins by ADP-Glo assay; format: protein-complex assay
MCF7 = test: Antiproliferative activity against wild type human MCF7 cells assessed as cell growth inhibition; format: functional, cell-based
[2] = Acute toxicity in ICR mouse assessed as increase in body weight at 1000 to 2500 mg/kg, po administered once and measured after 1 week; format: organism-based; settings: in vivo, 168 h, dose 1000-2500 mg/kg, time 1 weeks
OVCAR-3 [3] = test: Upregulation of inflammation-related pathway gene expression in human OVCAR-3 cells by GSEA; format: functional, cell-based
[4] = Acute toxicity in ICR mouse assessed as reduction in body weight at 1000 to 2500 mg/kg, po administered once and measured immediately; format: organism-based; settings: in vivo, dose 1000-2500 mg/kg
OVCAR-3 [5] = test: Induction of apoptosis in human OVCAR-3 cells assessed as early apoptotic cells at 2 uM incubated for 24 hrs by Annexin V-FITC/PI staining based flow cytometry analysis (reference value: 1.25%); format: functional
OVCAR-3 [6] = test: Induction of apoptosis in human OVCAR-3 cells assessed as viable cells at 1 uM incubated for 24 hrs by Annexin V-FITC/PI staining based flow cytometry analysis (reference value: 95.2%); format: functional; settings: read-out: Activity
OVCAR-3 [7] = test: Induction of cell cycle arrest in human OVCAR-3 cells assessed as accumulation of cells at G2 phase at 1 uM incubated for 24 hrs by flow cytometry analysis (reference value: 21.77%); format: functional
[8] = Acute toxicity in ICR mouse assessed as effect on heart weight at 1000 to 2500 mg/kg, po administered once for 14 days; format: organism-based; settings: in vivo, 336 h, dose 1000-2500 mg/kg, time 14 day
OVCAR-3 [9] = test: Inhibition of colony formation in CCNE1-amplified human OVCAR-3 incubated for 2 weeks by crystal violet staining based inverted microscopic analysis; format: functional, cell-based; settings: dose 1-4 µM
OVCAR-3 [10] = test: Antitumor activity against human OVCAR-3 cells xenografted in nude BALB/c mouse assessed as suppression of tumor cell proliferation at 40 to 80 mg/kg, po administered once daily for 21 days by Ki67 staining based analysis; format: functional, organism-based; settings: dose 40-80 mg/kg, time 21.0 day
OVCAR-3 [11] = test: Induction of apoptosis in human OVCAR-3 cells assessed as necrotic cells at 1 uM incubated for 24 hrs by Annexin V-FITC/PI staining based flow cytometry analysis (reference value: 0.87%); format: functional
OVCAR-3 [12] = test: Induction of cell cycle arrest in human OVCAR-3 cells assessed as accumulation of cells at G1 phase at 2 uM incubated for 24 hrs by flow cytometry analysis (reference value: 67.73%); format: functional
[13] = MRT (0 to infinity) in Sprague-Dawley rat at 2 mg/kg, iv by LC-MS/MS analysis; format: ADME, organism-based; settings: in vivo
[14] = Antiproliferative activity against Palbociclib-resistance human MCF7 cells assessed as cell growth inhibition; format: functional, cell-based, Palbociclib-resistant MCF7 cell
OVCAR-3 [15] = test: Antitumor activity against human OVCAR-3 cells xenografted in nude BALB/c mouse assessed as reduction in tumor cells at 40 to 80 mg/kg, po administered once daily for 21 days by H and E staining analysis; format: functional, organism-based; settings: dose 40-80 mg/kg, time 21.0 day
CDK6/cyclin D3 = CDK6/cyclin D3 (Homo sapiens, UniProt Q00534); test: Inhibition of CDK6/Cyclin D3 (unknown origin) pre-incubated for 10 mins followed by ATP/substrate addition and measured after 120 mins by ADP-Glo assay; format: protein-complex assay
[16] = AUC (0 to infinity) in Sprague-Dawley rat at 2 mg/kg, iv by LC-MS/MS analysis; format: ADME, organism-based; settings: in vivo
[17] = Acute toxicity in ICR mouse assessed as effect on lung weight at 1000 to 2500 mg/kg, po administered once for 14 days; format: organism-based; settings: in vivo, 336 h, dose 1000-2500 mg/kg, time 14 day
OVCAR-3 [18] = test: Induction of cell senescence in human OVCAR-3 cells assessed as increase in beta galactosidase activity incubated for 24 hrs by staining based inverted microscopic analysis; format: functional; settings: dose 1-2 µM
OVCAR-3 [19] = test: Upregulation of Bcl2l1gene expression in human OVCAR-3 cells by GSEA; format: functional, cell-based

Chain of Cyclin-dependent kinase 4/cyclin D1 (P11802 whole entry): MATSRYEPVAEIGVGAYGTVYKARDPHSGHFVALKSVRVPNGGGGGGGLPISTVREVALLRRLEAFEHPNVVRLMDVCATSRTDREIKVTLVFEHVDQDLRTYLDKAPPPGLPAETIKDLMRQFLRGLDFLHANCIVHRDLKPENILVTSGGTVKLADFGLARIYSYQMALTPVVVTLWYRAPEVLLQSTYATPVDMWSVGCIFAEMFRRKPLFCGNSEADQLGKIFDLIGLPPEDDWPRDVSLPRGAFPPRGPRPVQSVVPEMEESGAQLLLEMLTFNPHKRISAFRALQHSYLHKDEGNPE
Chain of Cyclin-dependent kinase 4/cyclin D1 (P24385 whole entry, further chain): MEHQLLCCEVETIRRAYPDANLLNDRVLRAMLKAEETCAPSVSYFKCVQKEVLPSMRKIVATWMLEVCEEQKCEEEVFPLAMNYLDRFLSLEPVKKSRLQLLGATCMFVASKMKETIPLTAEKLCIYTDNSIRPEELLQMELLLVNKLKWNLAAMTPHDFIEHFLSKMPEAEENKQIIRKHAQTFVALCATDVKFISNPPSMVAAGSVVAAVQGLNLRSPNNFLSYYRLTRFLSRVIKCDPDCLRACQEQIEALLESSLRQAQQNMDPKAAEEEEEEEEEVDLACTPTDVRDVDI
Chain of CDK6/cyclin D3 (P30281 whole entry): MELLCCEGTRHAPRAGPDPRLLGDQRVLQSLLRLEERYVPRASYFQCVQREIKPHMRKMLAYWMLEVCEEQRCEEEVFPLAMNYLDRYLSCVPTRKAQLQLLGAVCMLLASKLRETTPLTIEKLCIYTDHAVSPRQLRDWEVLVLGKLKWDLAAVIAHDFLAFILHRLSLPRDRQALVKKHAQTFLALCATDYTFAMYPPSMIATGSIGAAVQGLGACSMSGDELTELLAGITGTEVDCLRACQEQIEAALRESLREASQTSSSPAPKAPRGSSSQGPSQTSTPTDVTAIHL
Chain of CDK6/cyclin D3 (Q00534 whole entry): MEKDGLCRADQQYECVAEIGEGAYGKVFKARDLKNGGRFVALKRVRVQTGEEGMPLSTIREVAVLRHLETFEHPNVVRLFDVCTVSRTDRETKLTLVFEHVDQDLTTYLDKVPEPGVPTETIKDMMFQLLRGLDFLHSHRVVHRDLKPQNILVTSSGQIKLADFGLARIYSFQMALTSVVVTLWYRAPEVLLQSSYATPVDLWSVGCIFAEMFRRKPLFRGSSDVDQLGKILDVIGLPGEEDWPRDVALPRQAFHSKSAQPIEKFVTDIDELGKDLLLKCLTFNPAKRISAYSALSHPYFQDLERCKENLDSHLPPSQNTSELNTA

## CCC(C)n1cc(-c2nc(NC3CCN(S(=O)(=O)C4CC4)CC3)ncc2F)cc(F)c1=O (stereo unspecified)
[1]
  IC50: 103 nM
MCF7
  IC50: 186 nM
[2]
  Activity: Non-toxic
OVCAR-3 [3]
  Activity: Active
[4]
  Activity: Toxic
OVCAR-3 [5]
  Activity: 3.81%
OVCAR-3 [6]
  viability at 1 µM: 84.6%
OVCAR-3 [7]
  Activity: 4.3%
[8]
  Activity: Non-toxic
OVCAR-3 [9]
  inhibition: Dose-dependent-effect
OVCAR-3 [10]
  Activity: Active
OVCAR-3 [11]
  Activity: 5.01%
OVCAR-3 [12]
  Activity: 96.27%
[13]
  MRT inf: 49.2 min
[14]
  IC50: 954 nM
OVCAR-3 [15]
  Activity: Active
CDK6/cyclin D3
  IC50: 171 nM
[16]
  AUC(0-inf): 1480 ng·h/mL
[17]
  Activity: Non-toxic
OVCAR-3 [18]
  Activity: Dose-dependent-effect
OVCAR-3 [19]
  Activity: Active
